Experimental data from patent publication US12661382B2, “Method for obtaining oleocanthal type secoiridoids and for producing respective pharmaceutical preparations” (OMPHAX SA, priority 2019, dated 2026).

Assay: water solubility
Assay type: physicochemical

water solubility with respect to substances (1-6)	Substance
greatly increased water solubility	5S-(E)-oleokoronadiol [Substance 10]
greatly increased water solubility	5S-(E)-oleomissionadiol [Substance 9]
greatly increased water solubility	S-(E)-oleaceinediol [Substance 8]
greatly increased water solubility	S-(E)-oleocanthadiol [Substance 7]
greatly increased water solubility	ligstrodiol [Substance 12]
greatly increased water solubility	oleuropeinediol [Substance 11]
